The source of these data is patent US20250171437A1 (Agios Pharmaceuticals,Inc., priority 2022, published 2025).

The target of the first assay is T1, human PAH with the R408W mutation (A375 R408W cells) (Homo sapiens, UniProt P00439, R408W).
T1 construct: expressed in transfected cells
T1 sequence (P00439 1-452 R408W): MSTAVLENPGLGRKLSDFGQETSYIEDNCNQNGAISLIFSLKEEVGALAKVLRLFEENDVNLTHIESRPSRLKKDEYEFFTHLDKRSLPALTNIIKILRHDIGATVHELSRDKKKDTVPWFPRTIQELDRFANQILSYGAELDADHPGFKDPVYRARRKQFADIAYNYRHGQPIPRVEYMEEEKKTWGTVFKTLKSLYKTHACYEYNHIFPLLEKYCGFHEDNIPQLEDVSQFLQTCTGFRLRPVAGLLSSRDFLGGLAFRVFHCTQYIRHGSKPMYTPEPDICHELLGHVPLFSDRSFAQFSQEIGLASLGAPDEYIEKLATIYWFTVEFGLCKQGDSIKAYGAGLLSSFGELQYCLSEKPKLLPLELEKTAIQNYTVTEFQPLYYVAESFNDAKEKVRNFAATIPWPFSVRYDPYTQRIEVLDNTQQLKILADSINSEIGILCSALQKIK
In words: Cell Based Phenylalanine Flux Assay. As to conditions: A375 R408W cells; 24 hrs with compound, then 20 μM sepiapterin and 800 μM 13C9,15N-Phenylalanine for 4 hours; 13C-Tyrosine by LC-MS; average where tested multiple times. The gist of the method: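 A375 cells stably expressing lentiviral human PAH R408W were treated with compounds (10-point 2-fold dilutions, 0.5% DMSO, duplicate) for 24 h at 37 °C. Then 20 μM sepiapterin and 800 μM 13C9,15N-Phe were added for 4 h; media 13C-Tyr was measured by LC-MS to give AC50.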
`Cc1cnn(C)c1-c1nnc(C(=O)N2CCc3[nH]cnc3[C@H]2c2nc3cc(F)ccc3o2)o1` [Example 119, (S)-(5-(1,4-dimethyl-1H-pyrazol-5-yl)-1,3,4-oxadiazol-2-yl)(4-(5-fluorobenzo[d]oxazol-2-yl)-6,7-dihydro-1H-imidazo[4,5-c]pyridin-5(4H)-yl)methanone]: the half-maximal activity concentration (AC50) (as a rule, the concentration at which the activity in the assay is half-maximal) lay in the range of 500 to 1000 nM. The same measure, in the same setting: under `O=C(c1oc(-c2ncccn2)nc1C(F)F)N1CCc2[nH]cnc2[C@H]1c1nc2cccc(F)c2o1` [Example 667, (S)-(4-(difluoromethyl)-2-(pyrimidin-2-yl)oxazol-5-yl)(4-(7-fluorobenzo[d]oxazol-2-yl)-6,7-dihydro-1H-imidazo[4,5-c]pyridin-5(4H)-yl)methanone] stands not above 500 nM. Still for that read-out and setting: the value for `CC(C)(O)c1nc(C(F)(F)F)c(C(=O)N2CCc3[nH]cnc3[C@H]2c2nc3ccc(F)cc3o2)o1` [Example 255, (S)-(4-(6-fluorobenzo[d]oxazol-2-yl)-6,7-dihydro-1H-imidazo[4,5-c]pyridin-5(4H)-yl)(2-(2-hydroxypropan-2-yl)-4-(trifluoromethyl)oxazol-5-yl)methanone] was not above 500 nM; that for `COc1cccc2oc([C@@H]3c4nc[nH]c4CCN3C(=O)c3ncnn3C)nc12` [Example 903, (S)-(4-(4-methoxybenzo[d]oxazol-2-yl)-6,7-dihydro-1H-imidazo[4,5-c]pyridin-5(4H)-yl)(1-methyl-1H-1,2,4-triazol-5-yl)methanone] was 1000 to 5000 nM; that for `COc1cccc2oc([C@H]3c4nc[nH]c4CCN3C(=O)c3cnco3)nc12` [Example 622, (R)-(4-(4-methoxybenzo[d]oxazol-2-yl)-6,7-dihydro-1H-imidazo[4,5-c]pyridin-5(4H)-yl)(oxazol-5-yl)methanone] was 1000 to 5000 nM.

Turning to `O=C(c1ocnc1C(F)F)N1CCc2[nH]cnc2[C@H]1c1nc2cc(Br)cc(F)c2o1` [Example 573, (S)-(4-(5-bromo-7-fluorobenzo[d]oxazol-2-yl)-6,7-dihydro-1H-imidazo[4,5-c]pyridin-5(4H)-yl)(4-(difluoromethyl)oxazol-5-yl)methanone], the half-maximal activity concentration (AC50) was not above 500 nM. Same read-out and setting: under `O=C(c1cnn2cc(N3CCOCC3)ccc12)N1CCc2[nH]cnc2[C@@H]1c1nc2c(F)cccc2o1` [Example 503, (R)-(4-(4-fluorobenzo[d]oxazol-2-yl)-6,7-dihydro-1H-imidazo[4,5-c]pyridin-5(4H)-yl)(6-morpholinopyrazolo[1,5-a]pyridin-3-yl)methanone] stands not below 5000 nM; under `Cn1cc(-c2ncc(C(=O)N3CCc4[nH]cnc4[C@H]3c3nc4cc(F)ccc4o3)s2)cn1` [Example 9, (S)-(4-(5-fluorobenzo[d]oxazol-2-yl)-6,7-dihydro-1H-imidazo[4,5-c]pyridin-5(4H)-yl)(2-(1-methyl-1H-pyrazol-4-yl)thiazol-5-yl)methanone], not above 500 nM; under `COc1ccc2oc([C@@H]3c4nc[nH]c4CCN3C(=O)c3ccnn3C(F)F)nc2c1` [Example 551, (S)-(1-(difluoromethyl)-1H-pyrazol-5-yl)(4-(5-methoxybenzo[d]oxazol-2-yl)-6,7-dihydro-1H-imidazo[4,5-c]pyridin-5(4H)-yl)methanone], 500 to 1000 nM.

For `Cc1cccc2nc([C@H]3c4nc[nH]c4CCN3C(=O)c3ccnn3C)oc12` [Example 748, (R)-(1-methyl-1H-pyrazol-5-yl)(4-(7-methylbenzo[d]oxazol-2-yl)-6,7-dihydro-1H-imidazo[4,5-c]pyridin-5(4H)-yl)methanone], the AC50 lay within 1000 to 5000 nM.

The assay is the same for the next values; noted with them: A375 cells expressing R408W PAH; 24 hrs with compound, then 20 μM sepiapterin and 800 μM 13C9,15N-Phenylalanine for 4 hours; 13C-Tyrosine by LC-MS; average where tested multiple times.
Turning to `CC(C)(O)c1nc(C(F)F)c(C(=O)N2CCc3[nH]cnc3C2c2nc3cc(F)ccc3o2)s1` (stereo not shown), the AC50 lay in the range of 1000 to 5000 nM.

As for `CC(C)(O)c1nc(C(F)F)c(C(=O)N2CC3(CC3)c3[nH]cnc3C2c2nc3cc(F)ccc3o2)o1` (stereo not shown), the concentration at half-maximal activity (AC50) lay within 1000 to 5000 nM. Still for that read-out and setting: the value for `O=C(c1nncn1C1CC1)N1CCc2[nH]cnc2C1c1nc2cc(F)ccc2o1` (stereo not shown) was 1000 to 5000 nM.
